Reference: article PMC9115112, “A2B adenosine receptor antagonists rescue lymphocyte activity in adenosine-producing patient-derived cancer models” (Journal for Immunotherapy of Cancer, 2022)

Legend:
human A2AAR = biological target: T1, human A2AAR (Homo sapiens, UniProt P29274); assay: Radioligand binding, human A2AAR ([3H]ZM241385, transfected HeLa cells); conditions: displacement of [3H]ZM241385, human HeLa cells, n=3, racemic mixtures; read-out: Ki hA2A
T1 construct: expressed in transfected cells; host or cells: HeLa
T1 sequence (P29274 whole entry): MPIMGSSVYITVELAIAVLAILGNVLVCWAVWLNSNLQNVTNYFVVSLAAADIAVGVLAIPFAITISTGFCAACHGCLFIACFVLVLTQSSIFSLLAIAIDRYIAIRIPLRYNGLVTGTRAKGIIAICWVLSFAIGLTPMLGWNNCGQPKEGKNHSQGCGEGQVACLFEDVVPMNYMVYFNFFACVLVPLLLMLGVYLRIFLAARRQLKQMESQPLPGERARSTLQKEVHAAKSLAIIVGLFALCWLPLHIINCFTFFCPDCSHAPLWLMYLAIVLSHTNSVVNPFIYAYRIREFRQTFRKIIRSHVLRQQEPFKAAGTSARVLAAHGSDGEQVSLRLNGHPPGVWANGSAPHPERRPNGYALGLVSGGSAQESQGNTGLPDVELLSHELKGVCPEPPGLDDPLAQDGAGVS
Description: (§1) The affinity and selectivity profiles of the ligands obtained was studied in vitro, radioligand binding assays, at the four human specific ARs subtypes, using experimental protocols previously described.[28–30] All ligands were prepared and tested as racemic mixtures. […] Non-specific binding was determined in the presence of R-PIA 10 µM for A1AR, NECA 50 µM for A2AAR, NECA 400 μΜ for A2BAR and R-PIA 100 μΜ for A3AR.

human A3AR = biological target: T2, human A3AR (Homo sapiens, UniProt P0DMS8); assay: Radioligand binding, human A3AR ([3H]NECA, transfected HeLa cells); conditions: displacement of [3H]NECA, n=3, racemic mixtures, read-out: Ki hA3
T2 construct: expressed in transfected cells; host or cells: HeLa
T2 sequence (P0DMS8 1-318): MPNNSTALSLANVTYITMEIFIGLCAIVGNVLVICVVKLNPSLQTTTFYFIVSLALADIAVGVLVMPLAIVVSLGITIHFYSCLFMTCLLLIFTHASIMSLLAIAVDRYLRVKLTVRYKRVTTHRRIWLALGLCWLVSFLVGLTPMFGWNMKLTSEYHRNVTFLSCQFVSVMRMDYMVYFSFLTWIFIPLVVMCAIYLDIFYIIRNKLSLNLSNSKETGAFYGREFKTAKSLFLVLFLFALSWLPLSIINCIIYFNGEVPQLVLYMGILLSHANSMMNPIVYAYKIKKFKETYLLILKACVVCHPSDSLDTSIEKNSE
Description: as §1

human A2BAR = biological target: T3, human A2BAR (Homo sapiens, UniProt P29275); assay: Radioligand binding, human A2BAR ([3H]DPCPX, transfected HEK-293 cells); conditions: displacement of [3H]DPCPX, human HEK-293 cells, n=3, racemic mixtures; read-out: Ki hA2B
T3 construct: expressed in transfected cells; host or cells: HEK-293
T3 sequence (P29275 1-332): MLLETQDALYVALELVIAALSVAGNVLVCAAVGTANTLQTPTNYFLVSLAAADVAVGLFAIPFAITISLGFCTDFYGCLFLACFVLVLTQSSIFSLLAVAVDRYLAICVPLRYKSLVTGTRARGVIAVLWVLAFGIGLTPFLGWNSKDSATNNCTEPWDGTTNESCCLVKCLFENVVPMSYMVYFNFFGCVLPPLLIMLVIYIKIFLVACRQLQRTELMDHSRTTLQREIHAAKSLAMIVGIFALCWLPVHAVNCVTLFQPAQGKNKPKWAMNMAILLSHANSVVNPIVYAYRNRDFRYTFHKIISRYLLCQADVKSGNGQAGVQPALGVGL
Description: as §1

human A1AR = biological target: T4, human A1AR (Homo sapiens, UniProt P30542); assay: Radioligand binding, human A1AR ([3H]DPCPX, transfected CHO cells); conditions: displacement of [3H]DPCPX, transfected CHO cells, n=3, racemic mixtures; read-out: Ki hA1
T4 construct: expressed in transfected cells; host or cells: CHO
T4 sequence (P30542 1-326): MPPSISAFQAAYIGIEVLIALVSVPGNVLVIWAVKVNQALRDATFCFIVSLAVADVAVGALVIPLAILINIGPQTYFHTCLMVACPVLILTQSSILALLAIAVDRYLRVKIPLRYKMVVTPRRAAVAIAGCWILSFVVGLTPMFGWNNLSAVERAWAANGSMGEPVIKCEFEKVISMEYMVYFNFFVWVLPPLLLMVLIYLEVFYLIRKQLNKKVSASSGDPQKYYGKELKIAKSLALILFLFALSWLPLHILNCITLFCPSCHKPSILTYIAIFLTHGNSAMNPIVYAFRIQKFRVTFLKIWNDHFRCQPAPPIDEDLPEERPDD
Description: as §1

Measured: Ki

CC1=C(C(=O)OC(C)C)C(c2ccco2)N2C(=N1)N(Cc1ccccc1F)c1ccccc12 (stereo not shown) [ISAM-R56B]
> 1000 nM: human A2AAR | human A3AR | human A2BAR | human A1AR
